Experimental data from EP0351214A1, “Anti-inflammatory aryl derivatives” (THE WELLCOME FOUNDATION LIMITED, priority 1988, dated 1990).

Tests used:
cyclo-oxygenase (CO) = target: T1, cyclo-oxygenase (CO) (Homo sapiens, UniProt P23219); experiment: In vitro inhibition of cyclo-oxygenase (CO) in homogenised leukocytes, radioimmunoassay for thromboxane B2; format: biochemical; conditions: homogenised leukocytes from blood of normal aspirin-free volunteers; 5µM arachidonic acid, 37°C, 5 minutes; thromboxane B₂ by radioimmunoassay; read-out: IC₅₀(µM) activity CO
T1 construct: The leukocytes were homogenised and 5µM arachidonic acid added; from tissue; host or cells: homogenised leukocytes from blood of volunteers
Experimental: (§1) In vitro inhibition of 5-lipoxygenase (5-LO) and cyclo-oxygenase (CO)
(§2) Blood from normal aspirin-free volunteers was centrifuged to separate leukocytes from red cells and platelets. The leukocytes were homogenised and 5µM arachidonic acid added, followed by incubation at 37 °C for 5 minutes. The reaction was stopped by boiling and radioimmunoassays conducted for leucotriene B₄ and thromboxane B₂, products derived from 5-lipoxygenase and cyclo-oxygenase respectively. Results were calculated as IC₅₀(µM) activity against each enzyme.

5-lipoxygenase (5-LO) = target: T2, 5-lipoxygenase (5-LO) (Homo sapiens, UniProt P09917); experiment: In vitro inhibition of 5-lipoxygenase (5-LO) in homogenised leukocytes, radioimmunoassay for leucotriene B4; format: biochemical; conditions: homogenised leukocytes from blood of normal aspirin-free volunteers; 5µM arachidonic acid, 37°C, 5 minutes; leucotriene B₄ by radioimmunoassay; read-out: IC₅₀(µM) activity LO
T2 construct: The leukocytes were homogenised and 5µM arachidonic acid added; from tissue; host or cells: homogenised leukocytes from blood of volunteers
T2 sequence (P09917 1-674): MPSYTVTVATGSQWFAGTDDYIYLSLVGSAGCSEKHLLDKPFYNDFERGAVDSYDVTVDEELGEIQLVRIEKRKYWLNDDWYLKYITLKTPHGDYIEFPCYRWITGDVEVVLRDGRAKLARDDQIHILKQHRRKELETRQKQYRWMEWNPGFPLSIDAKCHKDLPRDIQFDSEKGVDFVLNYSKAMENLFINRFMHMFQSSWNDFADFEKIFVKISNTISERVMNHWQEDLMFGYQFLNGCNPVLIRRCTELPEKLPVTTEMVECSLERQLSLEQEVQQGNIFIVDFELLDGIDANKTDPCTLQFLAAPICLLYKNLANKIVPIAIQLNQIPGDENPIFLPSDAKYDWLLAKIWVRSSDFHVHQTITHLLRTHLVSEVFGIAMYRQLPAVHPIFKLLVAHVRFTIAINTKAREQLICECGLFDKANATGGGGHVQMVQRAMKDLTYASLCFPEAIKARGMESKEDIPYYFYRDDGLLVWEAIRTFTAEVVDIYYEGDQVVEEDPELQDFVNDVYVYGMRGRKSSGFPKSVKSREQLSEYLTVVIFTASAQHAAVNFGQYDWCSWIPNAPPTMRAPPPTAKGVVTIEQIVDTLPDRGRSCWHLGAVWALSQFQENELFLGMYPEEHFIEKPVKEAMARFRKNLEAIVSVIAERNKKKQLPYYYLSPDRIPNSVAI
Experimental: as §1, §2

T1 sequence (P23219 24-599): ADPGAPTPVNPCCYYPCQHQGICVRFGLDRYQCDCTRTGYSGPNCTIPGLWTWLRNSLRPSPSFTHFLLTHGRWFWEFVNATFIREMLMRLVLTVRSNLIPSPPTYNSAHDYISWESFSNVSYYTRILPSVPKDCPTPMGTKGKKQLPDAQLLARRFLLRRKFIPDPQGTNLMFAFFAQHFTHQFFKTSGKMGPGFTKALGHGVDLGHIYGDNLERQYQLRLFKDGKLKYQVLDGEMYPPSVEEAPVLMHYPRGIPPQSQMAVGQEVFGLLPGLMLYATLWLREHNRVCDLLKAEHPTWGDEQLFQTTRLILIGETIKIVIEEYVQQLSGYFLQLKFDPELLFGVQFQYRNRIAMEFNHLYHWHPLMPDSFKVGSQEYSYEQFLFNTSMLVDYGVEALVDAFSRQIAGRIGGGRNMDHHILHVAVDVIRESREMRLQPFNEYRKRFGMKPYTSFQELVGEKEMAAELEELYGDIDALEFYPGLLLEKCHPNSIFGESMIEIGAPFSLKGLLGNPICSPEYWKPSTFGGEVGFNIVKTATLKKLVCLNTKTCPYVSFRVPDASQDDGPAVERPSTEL

IC50 (cyclo-oxygenase (CO)): 3 µM
IC50 (5-lipoxygenase (5-LO)): 0.15 µM
SMILES: CC(=O)N(O)[C@@H](C)/C=C/c1cccc(Oc2ccc(F)cc2)c1 [Synthetic Example, (E)-N-{1(S)-methyl-3-[3-(4-fluorophenoxy)phenyl]prop-2-en-1-yl}acetohydroxamic acid]
